Reference: a compilation of properties of binary mixtures (doi:10.1016/j.molliq.2011.08.008)

Test: xn = mol fraction of the nth substance listed
Conditions: 100 kPa

CCOCCOCCOCCO + CCCC[n+]1ccn(C)c1.F[P-](F)(F)(F)(F)F
speed of sound [m/s]
Conditions | x2 = 0.0558 | x2 = 0.1123 | x2 = 0.2121 | x2 = 0.3079 | x2 = 0.4014 | x2 = 0.5002 | x2 = 0.6006 | x2 = 0.7035 | x2 = 0.8015 | x2 = 0.9075
288.15 K | – | 1474.2 | – | 1486.2 | 1487.1 | 1485 | 1481.8 | 1478.4 | 1469.4 | 1467.9
293.15 K | 1448.3 | 1457 | 1466.8 | 1470.5 | 1472.2 | 1470.8 | 1468.1 | – | – | –
298.15 K | 1430.9 | 1440 | 1450.5 | 1455 | 1457.3 | – | 1454.5 | 1452.5 | 1444.6 | –
303.15 K | 1414.1 | 1423.2 | 1434.3 | 1439.6 | 1442.5 | 1442.7 | 1441.2 | 1439.1 | – | 1431.2
308.15 K | 1397.3 | 1406.5 | 1418.1 | 1424.2 | 1427.7 | – | 1427.8 | 1426.1 | 1420.7 | 1419.5
313.15 K | – | – | 1402.2 | 1409 | 1413.1 | 1415 | 1414.5 | 1413.5 | – | 1408
318.15 K | 1363.8 | 1373.6 | 1386.2 | 1393.8 | 1398.8 | 1401.1 | 1401.5 | 1400.7 | 1397.8 | 1396.6
